Test: gradient 5% acetonitrile 3 min, to 50% in 2 min, to 85% in 15 min, held 3 min, 100 µL/min
Details: column: Zorbax Extend-C18 2.1 x 50 mm; eluents: water / acetonitrile, 0.1% formic acid
How it was run: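 The mobile phases were water and acetonitrile, each with 0.1% formic acid, pumped at 100 μL/min through a Zorbax Extend-C18 column (2.1 × 50 mm, 1.8 μm). Pure standards were injected as mixtures of ~100 molecules and detected by a quadrupole time-of-flight mass spectrometer in positive and negative ionization mode. Retention time came from computationally picked adduct peaks, each inspected by hand.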

SMILES	RP-LC retention time
CCOC(=O)c1scc(-c2ccc(C)cc2)c1S(=O)(=O)N1CCN(c2ccccn2)CC1	866 s
O=C(NCc1ccc2c(c1)OCO2)c1c(O)c2cccnc2[nH]c1=O	889 s
Cc1c(NC(=O)c2ccccc2-c2ccccc2C(=O)O)c(=O)n(-c2ccccc2)n1C	681 s
O=C(NC1CCCCC1)C1CCN(Cc2cc3ccccc3n2Cc2ccc(Cl)cc2)CC1	853 s
O=C(CSc1nccnc1Sc1ccccc1)N1CCN(c2ccccn2)CC1	688 s
CC1CCN(c2nn(CC(=O)Nc3cccc(C(C)C)c3)c(=O)c3ccccc23)CC1	1320 s
CC1CCCCN1CCCNC(=O)CC1CCN(C(=O)C2CCCCC2)CC1 (stereo not drawn)	605 s
COc1ccccc1-c1noc(-c2nnn3c2COC(c2ccc(C)cc2C)C3)n1 (stereo not drawn)	1250 s
Cc1ccc(C)c(NC(=O)N2C[C@@H](F)C[C@H]2C(=O)N2CCc3ccccc3C2)c1	836 s
O=C(Cc1csc(NC(=O)c2ccco2)n1)Nc1ccc2c(c1)OCCO2	670 s
CCc1ccccc1N1C(=O)CN(S(=O)(=O)CC)CC1(C)C(=O)NCc1ccccc1 (stereo not drawn)	860 s
CN1C(=O)c2cc(C(=O)NCc3ccccc3)nn2CC1(C)C(=O)NCc1ccccc1 (stereo not drawn)	685 s
O=C(Nc1cccc(C(F)(F)F)c1)Nc1cc(Cl)ccc1C(=O)O	1080 s
O=C(Nc1cnc(N2CCCCC2)nc1)c1ccc(F)cc1F	934 s
CCCn1cc(S(=O)(=O)Nc2ccccc2Cl)c2cccnc21	914 s
CCOC(=O)c1c(S(=O)(=O)NCc2ccccc2F)n[nH]c1C	728 s
CCc1nc(-c2ccc(S(=O)(=O)N3CCC(C(=O)NC4CCCCC4)CC3)cc2)no1	954 s
CC(C)(C)c1noc(Cc2nnc(-c3ccc(F)cc3)o2)n1	942 s
c1ccc(-c2noc(CN3CCCCC3c3nc(C4CC4)no3)n2)nc1 (stereo not drawn)	784 s
CC(C)C1c2nccn2CCCN1C(=O)CCn1cccn1 (stereo not drawn)	574 s
CC(=O)Nc1cccc(NC(=O)C2CC(=O)N(c3n[nH]c4ccccc34)C2)c1 (stereo not drawn)	625 s
Cn1cnc(S(=O)(=O)N2[C@H]3CC[C@@H]2c2cnc(-c4ccccc4)nc2C3)c1	763 s
CC(C)c1noc(-c2cc(=O)n(CC(=O)Nc3ccccc3Cl)c3ccccc23)n1	1050 s
CCn1cc(CCN2CCN(S(=O)(=O)c3ccc(F)cc3)CC2)c2cccnc21	638 s
CCC(CC)C(=O)Nc1ccc(-c2nc(-c3ccc(Cl)cc3)no2)cc1	639 s

SMILES	RP-LC retention time
CC(C)NC(=O)NCCC1CCN(S(=O)(=O)c2ccc(F)cc2)CC1	782 s
CCOC(=O)c1ccc(N2C=C(C(=O)OC)S(=O)(=O)c3cc(F)ccc32)cc1	861 s
Cc1oc(-c2cccs2)nc1CSc1ncnc2nc[nH]c12	714 s
CC(C)NC(=O)C1Cc2cc(C(F)(F)F)ccc2N2CCN(c3ccccc3Cl)CC12 (stereo not drawn)	1200 s
CCOCCCNCc1ccc(-c2ccc(Cl)cc2Cl)o1	765 s
Cc1ccc(N2CC(c3noc(-c4ccc(OC(F)(F)F)cc4)n3)CC2=O)cc1 (stereo not drawn)	1170 s
CN1C(=O)c2cc(C(=O)NCc3ccc(F)cc3)nn2CC1(C)C(=O)NC1CCCC1 (stereo not drawn)	747 s
Cc1nnsc1C(=O)N1CCC(CNC(=O)C(C)(C)Oc2ccc(Cl)cc2)CC1	806 s
COCCCNC(=O)c1nnc(-c2ccc(S(=O)(=O)N(C)C)cc2)o1	717 s
CC(=O)N1CCc2cc(N3CC(C(=O)Nc4ccc(C(F)(F)F)cc4)CC3=O)ccc21 (stereo not drawn)	798 s
Cc1ccc(N2CCN(c3nccn4c(=O)n(CC(=O)Nc5cc(C)cc(C)c5)nc34)CC2)cc1	1030 s
CCOc1ccc(-c2nc(-c3ccc4c(c3)N(CC)C(=O)CO4)no2)cc1OCC	1200 s
CCOc1ccc(S(=O)(=O)N2CCCC(C(=O)NCCCO)C2)cc1C (stereo not drawn)	736 s
COc1ccc2nc(C)cc(NCCCCCCCCCNc3cc(C)nc4ccc(OC)cc34)c2c1	670 s
COc1ccc(-c2ncc3c(n2)CCN(C(=O)Nc2cccc(C)c2C)C3)cc1	894 s
O=C(CSc1nnc2c3cc(-c4ccccc4)nn3ccn12)NCc1ccccc1	781 s
CCN1CCN(C(=O)C2CCc3sc(C(=O)N4CCCC4)cc3C2)CC1 (stereo not drawn)	580 s
COC(=O)C1CCN(C(=O)c2cccnc2-c2nc3ccccc3s2)CC1	747 s
CCCSCCCNC(=O)c1cc2n(n1)CCCN(Cc1ccc(F)cc1)C2=O	827 s
O=C(Cc1nnc(-c2ccccc2)o1)NCc1ccncc1	566 s
O=C(Cc1ccccc1)N1CCCCC1c1nncn1-c1ccccc1 (stereo not drawn)	741 s
COC(=O)c1nnn(CC(=O)NCc2ccc3c(c2)OCO3)c1C(=O)OC	657 s
CCCCCNC(=O)CCc1nnc2c3cc(-c4ccc(C)c(C)c4)nn3ccn12	872 s
Cn1ncc2c3ccccc3n(CCCC(=O)NCc3ccccc3)c2c1=O	810 s

Results, then the molecule that gave them:

RP-LC retention time	SMILES
1040 s	CCOC(=O)C1CCCN(c2cc(-n3nc(C)cc3C)ncn2)C1 (stereo not drawn)
1000 s	CCc1ccc(C(=O)N2CCN(C(=O)c3nnn4c3COC(c3ccc(C)cc3)C4)CC2)cc1 (stereo not drawn)
1060 s	COc1cccc(Cn2nc(-c3nc(-c4ccc(F)cc4)no3)ccc2=O)c1
568 s	OCCNCCNCc1ccc(-c2cccc(Cl)c2)o1
854 s	Cc1cc(C)n(-c2ccnc(N3CCC(C(=O)N4CCSCC4)CC3)n2)n1
893 s	COc1ccc(-c2csc(NC(=O)CS(=O)(=O)c3ccc(C)cc3)n2)cc1OC
861 s	CCOc1ccccc1C(=O)N1CCC2(CC1)NC(=O)c1cc(C)ccc1N2CC
868 s	O=C(NCCc1c[nH]c2ccccc12)c1cc(-c2ccccn2)nc2ccccc12
589 s	CCN1CCN(CCNC(=O)C2CN(C(=O)c3cccs3)CC23CCCCC3)CC1 (stereo not drawn)
964 s	Cn1nc(-c2nc(-c3cccc(F)c3)no2)c2c1CCN(C(=O)NC(C)(C)C)C2
587 s	CCCc1cc(N2CCN(C(=O)C3CCN(C(C)=O)CC3)CC2)nc2nnc(CC)n12
1100 s	CC1CCCCN1S(=O)(=O)c1ccc2nc(N3CCN(c4ccccc4)CC3)ccc2c1 (stereo not drawn)
730 s	O=C(Cn1nc2n(c1=O)CCCCC2)Nc1ccc(Cl)cc1
626 s	CCOC(=O)c1nc(N2CCOCC2)c2ccccc2n1
968 s	COc1cc(C(=O)N(Cc2ccc(C(C)C)cc2)C2CCS(=O)(=O)C2)cc(OC)c1OC (stereo not drawn)
1050 s	CCN1C(=O)c2cc(S(=O)(=O)Nc3ccc(F)c(F)c3)ccc2Oc2cccnc21
554 s	O=C(c1cccc2ccccc12)N1CCN(c2ccc(Nc3ccncc3)nn2)CC1
633 s	O=C(Nc1nc2ccccc2n1CCN1CCOCC1)c1ccc(Cl)cc1
997 s	COc1cccc(Cn2nc3c(S(=O)(=O)N4CCN(c5ccc(F)cc5)CC4)cccn3c2=O)c1
625 s	O=C(NCCCN1CCOCC1)C(=O)Nc1ccc(Br)cc1F

RP-LC retention time	SMILES
1090 s	Cn1cc(-c2nc(C(=O)Nc3ccc(Cl)cc3)cs2)c2cccnc21
570 s	CC(=O)Nc1nc2ccc(CC(=O)N3CCN(c4ccccn4)CC3)cc2s1
1140 s	CCOC(=O)c1ccc2nc(C(F)(F)F)nc(NCCc3ccc(OC)c(OC)c3)c2c1
1040 s	CCC(=O)N1CCc2c(C(=O)N3CCN(c4cc(C)ccc4C)CC3)cccc21
1180 s	Cc1ccc(-c2csc(NC(=O)CCCc3nc(-c4ccccc4Cl)no3)n2)cc1
1300 s	CCOc1ccc(-c2cc3c(SCC)nccn3n2)cc1
859 s	N#Cc1cccc(NC(=O)Cn2cccc(-c3nc(-c4ccc(F)cc4)no3)c2=O)c1
882 s	COC(=O)c1cccc(NC(=O)Cn2c(C)cc(-c3nnc(C4CCC4)o3)c2C)c1
1150 s	CCn1c(=O)c2cc(C(=O)N3CCC(Cc4ccccc4)CC3)nn2c2ccccc21
559 s	Cc1nc(-c2ccccc2)cc2nn(CC(=O)NCc3ccc(F)cc3)c(=O)n12
1070 s	CC(C)c1ccc(S(=O)(=O)N2CCc3c(c(-c4nnc(-c5ccccc5F)o4)nn3C)C2)cc1
661 s	Cc1cc(Cl)ccc1NC(=O)N1CCC(n2cnnc2C2CC2)C1 (stereo not drawn)
961 s	CCN1CCCc2cc(C(=O)NC3CCCC3)sc21
670 s	COc1ccc(-c2nc(Cn3ccn4nc(-c5ccc(F)cc5)cc4c3=O)c(C)o2)cc1
586 s	CN1CCCN(C(=O)c2ccc(-c3ccsc3)nc2)CC1
498 s	Fc1ccc(CN2CCN(c3cnn4c(C5CC5)nnc4c3)CC2)cc1
711 s	CN1C(=O)CCSc2ccccc21
556 s	CCN(CC)CCCNC(=O)C1CCCN(c2ncnc3c2nc2n3CCCCC2)C1 (stereo not drawn)
1170 s	Cc1ccc(-n2nc(C)c3sc(N4CCCC(C(=O)NC(C)(C)C)C4)nc32)cc1 (stereo not drawn)
